Measurements: US12172988B2, “Anticancer and antifungal splice modulators” (priority 2021, dated 2024)
Like-named read-outs stand apart in the source and are kept apart here.

Columns and labels:
Assay type in all cases: cell-based, human
HCT116 tumor cells = experiment: qPCR structure-splicing profile over the gene panel; settings: HCT116, 24 h, 100, 250, 500 nM, compared to 1
Protocol: (§1) HCT116 tumor cells were treated with analogues at 100 nM (light grey), 250 nM (grey), or 500 nM (black) for 24 h and then cellular RNA was isolated and purified for qPCR. Primers were designed to evaluate intron retention or exon skipping, direct responses to splice modulator treatment. Genes evaluated included those involved in splicing regulation (SF3A1, SF3A3, SF3B1, SF3B2), apoptosis (MCL-1L), and protein folding (DNAJB1), relative to the unspliced control GAPDH. For alternative splicing regulator (SF2), primers were designed to evaluate gene expression, which changes in response splice modulator treatment for SF2 relative to the unspliced control GAPDH. (—) denotes untreated cells.
(§2) For these studies, we evaluated the expression of genes involved in splicing regulation (SF3A1, SF3A3, SF3B1, SF3B2), apoptosis (MCL-1L), protein folding (DNAJB1), and cell cycle regulation (AURKA, PLK-1) relative to the unspliced control GAPDH. Primers were designed to evaluate intron retention or exon skipping, direct responses to splice modulator treatment. The master splicing regulator alternative splicing factor (SF2) was also evaluated, with the primers for this gene designed to evaluate overall gene expression, which changes in response to splice modulator treatment.
(§3) From this 4 h study (FIG. 14), a small set of analogs (1, 1b, 1g, 1d, 1e, 1i and 1j) were selected to evaluate if effects on splicing when presented for a longer 24 h period. […] Using identical procedures as that used for 4 h, HCT116 cells were treated with three concentrations (100 nM, 250 nM and 500 nM) of each analog for 24 h. Multiple concentrations were used as a means to check further validate the use of the GI50 concentration in our prior study (FIG. 14). As before, none of the concentrations tested led to significant changes in cell viability over the 24-hour time window, ensuring that changes in gene expression were not due to cell death.
(§4) Cells were treated with 1 or 1a-1j in media (McCoy's 5a (Life Technologies) supplemented with 10% FBS, 2 mM L-glutamine, and 100 U mL^−1 of penicillin and 100 μg mL^−1 of streptomycin 0.5% DMSO) for 4 h or 24 h. Untreated cells were considered were used as negative control. Total RNA was isolated using mirVana miRNA isolation kit (Life Technologies). A 1 μg sample of RNA was subjected to DNAseI from a TURBO DNA free kit (Life Technologies). The cDNA was prepared by using SuperScript III reverse transcriptase kit (Life Technologies). The amount of unspliced RNA for different genes was determined using Power SYBR Green PCR master mix (Applied Biosystems) by qPCR using specific primers for each gene. qPCR using 2.5 μM of each primer was performed on 5 ng of the obtained cDNA. qPCR conditions were as follows: 95° C. for 10 min for one cycle, then 95° C. for 10 min for one cycle, then 95° C. for 30 s, 55° C. for 60 s, 72° C. for 60 s, for 40 cycles using the MXPro. Quantification cycle (Cq) values were identified for each sample, and then RNA levels were calculated using 2-ΔΔCT method. GAPDH was used as a control for normalization. At least three replicates were conducted for each compound. Namely, all genes explored in this study were evaluated from the same cell cultures. Here, individual cultures were used for each compound explored and at least three replicates were used for each compound. While experimental variation occurred between the different compound treatments, the levels of the different intron retention, exon skipping or RNA expression were collected from the same cellular material. Statistics were calculated using a standard one-way ANOVA; p values were represented so that * signifies p<0.0001. HCT116 were treated with analogs 1-1j ranging from 0.1-5000 nM for 72 hours, then cell viability was measured using the MTS assay. GI50 values and confidence intervals were calculated using GraphPad (Table 12).

[1] = tested on: HCT116 colorectal carcinoma cells; experiment: MTS cell viability / cell growth inhibition assay; settings: for cell growth inhibitory activity compared to FD-895: HCT-116 cells; for GI50: Homo sapiens, HCT-116, 72 h
Protocol: With milligram quantities of 1a-1i at hand, we began our studies to evaluate the relative efficacy of each analogue using cell growth inhibition studies in HCT116 colorectal carcinoma cells. As reported in FIG. 3, GI50 values were collected for each analog after a 72 h treatment using the MTS cell viability assay (Table 12). Under these conditions, the natural FD-895 (1), 3S-FD-895 (1a) 17S-FD-895 (1d), 17-methoxy-FD-895 (1e) provided activities of <10 nM.
HCT-116 cells was cultured in McCoy's 5a (Life Technologies) supplemented with 10% fetal bovine serum (FBS), 2 mM L-glutamine, and 100 U mL^−1 of penicillin and 100 μg mL^−1 of streptomycin at 37° C. in an atmosphere of 5% CO2. Compounds were dissolved in DMSO (MilliporeSigma). Cells were treated with 1-1j in media with ≥0.5% DMSO for 4-72 h.
Studies were conducted in […] cell culture plates. HCT-116 plated at 5×10^3 cells/well were cultured for 24 h and then treated with analogs 1-1j for 4-72 h, then washed twice with 100 μL PBS. PBS (100 μL) was added to each well, followed by 20 μL of CellTiter Aqueous One Solution (Promega). After 2 h at 37° C., absorbance readings were taken at 490 nm (test wavelength) and 690 nm (reference wavelength). GI50 values were calculated in Prism (GraphPad) using greater 3 replicates.
as §4

SF3B2 = experiment: qPCR splicing analysis, SF3B2 intron retention; settings: HCT116, 4 h, 20 times GI50, qPCR relative to GAPDH
Protocol: as §1, with “each analogue” for “analogues”, “20 times the G150 value (Table 12)” for “100 nM (light grey), 250 nM (grey), or 500 nM (black)”, “4 hours” for “24 h”, “(MCL-1L),” for “(MCL-1L), and”, “(DNAJB1), and cell cycle regulation (AURKA, PLK-1)” for “(DNAJB1),”, “(−)” for “(—)”
as §1
(§5) Next, we turned our efforts to explore the ability of these analogues to modulate splicing. […] We treated cells for 4 h so that we could evaluate early changes in splicing activity, and then cellular RNA was isolated and purified for analyses by qPCR (FIG. 14). Most importantly, none of the concentrations tested led to significant changes in cell viability, ensuring that changes in gene expression were not due to cell death.
as §2, §3
(§6) Cells were treated with 1 or 1a-1j in media (McCoy's 5a (Life Technologies) supplemented with 10% FBS, 2 mM L-glutamine, and 100 U mL^−1 of penicillin and 100 μg mL^−1 of streptomycin 0.5% DMSO) for 4 h or 24 h. Untreated cells were considered were used as negative control. Total RNA was isolated using mirVana miRNA isolation kit (Life Technologies). A 1 μg sample of RNA was subjected to DNAseI from a TURBO DNA free kit (Life Technologies). The cDNA was prepared by using SuperScript III reverse transcriptase kit (Life Technologies). […]

SF3A1 = experiment: qPCR splicing analysis, SF3A1 intron retention; settings: HCT116, 4 h, 20 times GI50, qPCR relative to GAPDH
Protocol: as §1, with “each analogue” for “analogues”, “20 times the G150 value (Table 12)” for “100 nM (light grey), 250 nM (grey), or 500 nM (black)”, “4 hours” for “24 h”, “(MCL-1L),” for “(MCL-1L), and”, “(DNAJB1), and cell cycle regulation (AURKA, PLK-1)” for “(DNAJB1),”, “(−)” for “(—)”
as §1, §5, §2, §3, §6

DNAJB1 = experiment: qPCR splicing analysis, DNAJB1 intron retention; settings: HCT116, 4 h, 20 times GI50, qPCR relative to GAPDH
Protocol: as §1, with “each analogue” for “analogues”, “20 times the G150 value (Table 12)” for “100 nM (light grey), 250 nM (grey), or 500 nM (black)”, “4 hours” for “24 h”, “(MCL-1L),” for “(MCL-1L), and”, “(DNAJB1), and cell cycle regulation (AURKA, PLK-1)” for “(DNAJB1),”, “(−)” for “(—)”
as §1, §5, §2, §3
Cells were treated with 1 or 1a-1j in media (McCoy's 5a (Life Technologies) supplemented with 10% FBS, 2 mM L-glutamine, and 100 U mL^−1 of penicillin and 100 μg mL^−1 of streptomycin 0.5% DMSO) for 4 h or 24 h. Untreated cells were considered were used as negative control. Total RNA was isolated using mirVana miRNA isolation kit (Life Technologies). […]

AURKA = experiment: qPCR splicing analysis, AURKA exon skipping / expression; settings: HCT116, 4 h, 20 times GI50, qPCR
Protocol: as §1, with “each analogue” for “analogues”, “20 times the G150 value (Table 12)” for “100 nM (light grey), 250 nM (grey), or 500 nM (black)”, “4 hours” for “24 h”, “(MCL-1L),” for “(MCL-1L), and”, “(DNAJB1), and cell cycle regulation (AURKA, PLK-1)” for “(DNAJB1),”, “(−)” for “(—)”
Next, we turned our efforts to explore the ability of these analogues to modulate splicing. […] We treated cells for 4 h so that we could evaluate early changes in splicing activity, and then cellular RNA was isolated and purified for analyses by qPCR (FIG. 14). […]
For these studies, we evaluated the expression of genes involved in splicing regulation (SF3A1, SF3A3, SF3B1, SF3B2), apoptosis (MCL-1L), protein folding (DNAJB1), and cell cycle regulation (AURKA, PLK-1) relative to the unspliced control GAPDH. […] The master splicing regulator alternative splicing factor (SF2) was also evaluated, with the primers for this gene designed to evaluate overall gene expression, which changes in response to splice modulator treatment. […]
Cells were treated with 1 or 1a-1j in media (McCoy's 5a (Life Technologies) supplemented with 10% FBS, 2 mM L-glutamine, and 100 U mL^−1 of penicillin and 100 μg mL^−1 of streptomycin 0.5% DMSO) for 4 h or 24 h. […] The amount of unspliced RNA for different genes was determined using Power SYBR Green PCR master mix (Applied Biosystems) by qPCR using specific primers for each gene. qPCR using 2.5 μM of each primer was performed on 5 ng of the obtained cDNA. qPCR conditions were as follows: 95° C. for 10 min for one cycle, then 95° C. for 10 min for one cycle, then 95° C. for 30 s, 55° C. for 60 s, 72° C. for 60 s, for 40 cycles using the MXPro. […]

[2] = HCT116, 72 hours, MTS assay, 0.1-5000 nM, read-out: GI50 value

| Structure (SMILES) | cell growth inhibitory activity compared to FD-895 [1] | GI50 ([1]; read-out: GI50 value) | SF3A1 intron 6 retention (level of intron retention) (SF3A1) | GI50 ([1]; read-out: GI50 value (text)) | further results |
| --- | --- | --- | --- | --- | --- |
| CC[C@H](OC)[C@@H](C)[C@H]1O[C@@H]1[C@H](O)[C@H](C)/C=C/C=C(\C)[C@H]1OC(=O)C[C@H](O)CC[C@@](C)(O)[C@H](OC(C)=O)/C=C/[C@@H]1C [Analog 1b, 7R-FD-895] | compromised activity | 432 nM | – | – | splicing activity over the genes tested (HCT116 tumor cells): loss of splicing activity when compared to 1; fold less active (GI50) than 1 ([1]; HCT116 cell growth inhibition, compared to 1): 250 fold; SF3B2 intron retention (level of intron retention) (SF3B2): improved efficacy |
| CC[C@H](OC)[C@@H](C)[C@H]1O[C@@H]1[C@@H](OC)[C@H](C)/C=C/C=C(\C)[C@H]1OC(=O)C[C@H](O)CC[C@@](C)(O)[C@@H](OC(C)=O)/C=C/[C@@H]1C [Analog 1f, 17-methoxy-17S-FD-895] | – | – | more effective than 1 | – | fold loss in activity ([1]; HCT116 GI50, double modification (methylation and inversion at C17)): 10 fold; GI50 [1, 2]: 37.6 nM; GI50 ([1]; HCT116, 72 h treatment, MTS cell viability assay, read-out: GI50 value): 38 nM |
| CC[C@H](OC)[C@@H](C)[C@H]1O[C@@H]1[C@H](O)[C@H](C)/C=C/C=C(\C)[C@H]1OC(=O)C[C@@H](O)CC[C@@](C)(O)[C@@H](OC(C)=O)/C=C/[C@@H]1C [Analog 1a, 3S-FD-895] | compromised activity | 2.21 nM | more effective than 1 | < 10 nM | DNAJB1 intron 2 retention (level of intron retention) (DNAJB1): highest level of intron retention; effect on exon 4 skipping in AURKA (AURKA): most potent effect |
| CC[C@H](OC)[C@@H](C)[C@H]1O[C@@H]1[C@H](O)[C@H](C)/C=C/C=C(\C)[C@@H]1OC(=O)C[C@H](O)CC[C@@](C)(O)[C@@H](OC(C)=O)/C=C/[C@H]1C [Analog 1c, 10R,11R-FD-895] | – | 36600 nM | – | 37000 nM | – |
| CC[C@H](OC)[C@@H](C)[C@H]1O[C@@H]1[C@H](O)[C@H](C)/C=C/C=C(\C)[C@H]1OC(=O)C[C@H](O)CC[C@@](C)(O)[C@@H](OC(C)=O)/C=C/[C@@H]1C [Analog 1, FD-895, reference compound] | – | 1.72 nM | – | – | – |
| CC[C@H](OC)[C@@H](C)[C@H]1O[C@@H]1[C@H](OC)[C@H](C)/C=C/C=C(\C)[C@H]1OC(=O)C[C@H](O)CC[C@@](C)(O)[C@@H](OC(C)=O)/C=C/[C@@H]1C [Analog 1e, 17-methoxy-FD-895] | comparable cell growth inhibitor activity as 1 | – | more effective than 1 | – | DNAJB1 intron 2 retention (level of intron retention) (DNAJB1): highest level of intron retention; splicing activity over the genes tested (HCT116 tumor cells): comparable or slightly reduced splice modulatory activity as 1; GI50 [1, 2]: 2.21 nM |
| CC[C@H](OC)[C@@H](C)[C@H]1O[C@@H]1[C@@H](O)[C@H](C)/C=C/C=C(\C)[C@H]1OC(=O)C[C@H](O)CC[C@@](C)(O)[C@H](OC(C)=O)/C=C/[C@@H]1C [Analog 1h, 7R,17S-FD-895] | – | 806 nM | – | 806 nM | fold less effective compared to 1b ([1]; HCT116 GI50, compared to 1b): 1.8 fold; fold less effective compared to 1d ([1]; HCT116 GI50, compared to 1d): 380 fold |
